Assay results: US7138415B2, “Indolamid derivatives which possess glycogenphosphorylase inhibitory activity” (AstraZeneca AB, priority 2002, dated 2006)

How the values were obtained:
hepatocytes = settings: cited from earlier work
[1] = db/db and ob/ob mice; cited from earlier work
[2] = target: T1, Human recombinant liver glycogen phosphorylase α (hrl GPα) (Homo sapiens, UniProt P06737); assay: Glycogen phosphorylase inhibition of glycogen degradation (multienzyme coupled assay, NADH fluorescence); type: biochemical; settings: glycogen degradation direction
T1 sequence (P06737 1-847): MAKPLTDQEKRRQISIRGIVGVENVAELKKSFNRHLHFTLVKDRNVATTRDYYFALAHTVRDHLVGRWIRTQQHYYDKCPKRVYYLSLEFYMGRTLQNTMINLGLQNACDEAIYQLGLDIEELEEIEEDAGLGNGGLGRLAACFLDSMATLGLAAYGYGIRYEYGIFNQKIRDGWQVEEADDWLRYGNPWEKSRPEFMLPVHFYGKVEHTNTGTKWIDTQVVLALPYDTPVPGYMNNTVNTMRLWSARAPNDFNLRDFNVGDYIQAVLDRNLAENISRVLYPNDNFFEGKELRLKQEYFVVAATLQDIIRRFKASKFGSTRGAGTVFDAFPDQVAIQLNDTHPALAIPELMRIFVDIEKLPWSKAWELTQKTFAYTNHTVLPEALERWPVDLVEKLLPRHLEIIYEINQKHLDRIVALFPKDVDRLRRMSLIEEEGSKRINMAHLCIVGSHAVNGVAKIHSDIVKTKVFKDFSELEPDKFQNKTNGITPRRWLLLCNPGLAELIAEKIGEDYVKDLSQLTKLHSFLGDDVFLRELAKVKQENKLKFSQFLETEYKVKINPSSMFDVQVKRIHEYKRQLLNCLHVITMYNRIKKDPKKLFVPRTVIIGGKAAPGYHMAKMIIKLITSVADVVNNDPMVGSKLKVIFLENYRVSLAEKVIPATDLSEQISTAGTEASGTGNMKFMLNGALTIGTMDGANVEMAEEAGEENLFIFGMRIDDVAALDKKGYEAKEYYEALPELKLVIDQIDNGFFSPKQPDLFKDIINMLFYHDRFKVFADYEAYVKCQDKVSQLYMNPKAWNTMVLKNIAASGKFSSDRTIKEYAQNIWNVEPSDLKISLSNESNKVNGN
Method: The activity of the compounds is alternatively determined by measuring the inhibitory effect of the compounds on glycogen degradation, the production of glucose-1-phosphate from glycogen is monitored by the multienzyme coupled assay, as described in EP 0 846 464 A2, general method of Pesce et al (Pesce, M A, Bodourian, S H, Harris, R C, and Nicholson, J F (1977) Clinical Chemistry 23, […]). The reactions were in 384well microplate format in a volume of 50 μl. The change in fluorescence due to the conversion of the co-factor NAD to NADH is measured at 340 nm excitation, 465 nm emission in a Tecan Ultra Multifunctional Microplate Reader. The reaction is in 50 mM HEPES, 3.5 mM KH2PO4, 2.5 mM MgCl2, 2.5mM ethylene glycol-bis(b-aminoethyl ether) N,N,N′,N′-tetraacetic acid, 100 mM KCl, 8mM D-(+)-glucose pH7.2, containing 0.5 mM dithiothreitol, the assay buffer solution. Human recombinant liver glycogen phosphorylase α (hrl GPα) 20 nM is pre-incubated in assay buffer solution with 6.25 mM NAD, 1.25 mg type III glycogen at 1.25 mg ml^−1 the reagent buffer, for 30 minutes. […] The non-inhibited activity of GPα is measured in the presence of 10 μl 5% DMSO in assay buffer solution and maximum inhibition measured in the presence of 5 mgs ml^−1 N-ethylmaleimide. […] Relative Fluoresence Units (RFUs) are measured at 340 nm excitation, 465 nm emission. […]

[3] = conscious dogs; cited from earlier work

SMILES	glucagon stimulated glycogenolysis (hepatocytes)	glucose output in hepatocytes (hepatocytes)	plasma glucose concentration [1]	IC50 [2] [µM]	arterial plasma glucose following a glucagon challenge [3]	hepatic glucose output following a glucagon challenge [3]
O=C(N[C@@H](Cc1ccc(F)cc1)C(=O)N1CCC(O)CC1)c1cc2cc(Cl)ccc2[nH]1 [CP320626]	reduce	reduce	reduced, in a dose related manner			
O=C(CN(CCO)Cc1ccccc1)N[C@@H]1c2ccccc2C[C@H]1NC(=O)c1cc2cc(Cl)ccc2[nH]1 [Example 17, 5-Chloro-N-[(1R,2R)-1-({[(2-hydroxyethyl)(phenylmethyl)amino]acetyl}amino)-2,3-dihydro-1H-inden-2-yl]-1H-indole-2-carboxamide]				7.4		
CCN1C(C)=C(C(=O)OC(C)C)C(c2ccccc2Cl)C2=C1COC2=O (stereo not drawn) [Bay R 3401]					reduced significantly	reduced significantly
CN(C)C(=O)[C@H](O)[C@H](Cc1ccccc1)NC(=O)c1cc2cc(Cl)ccc2[nH]1 [CP91149]	reduce	reduce	reduced, in a dose related manner			
